# Measurements published in US10947188B2, “Small molecule ferroptosis inducers” (THE TRUSTEES OF COLUMBIA UNIVERSITY IN THE CITY OF NEW YORK, priority 2016, dated 2021).
# Legend:
# [1] = test system: HT-1080 cells; assay: Lethality of commercially available CIL41/70 structural analogs; format: cell-based; conditions: Homo sapiens, tested once in technical triplicates
# Method: 1,000 cells per 36 μl were seeded in each well in 384-well plates. Lethal compounds were dissolved, and a twofold, 12-point dilution series was prepared in DMSO. Compound solutions were further diluted with media at 1:25, and 4 μl per well of the diluted solutions was added to cell cultures immediately after cells were seeded. […] When other cell-death-modulating compounds (100 nM sodium selenite, 1 μM cerivastatin, 100 μg/mL mevalonic acid) were used in cotreatments, they were supplemented to cell culture for 24 h before lethal compounds were added to cell culture, after which cells were further incubated for 24 h at 37° C. under 5% CO2. On the day of the viability measurement, we added 10 μl per well of 50% Alamar Blue diluted in media (Life Technologies) and further incubated the cells at 37° C. for 6 h. Fluorescence intensity (excitation/emission: 530/590) was measured with a Victor 3 plate reader (PerkinElmer), and the normalized viability was calculated as VL=(IL−I0)/(IV−I0), where VL, I0, IV, and IL are the normalized viability and the raw fluorescence intensities from the wells containing media, cells treated with a vehicle (negative control), and cells with the lethal compound (L), respectively. When the effect of a chemical modulator (M) on L was calculated, we instead used the equation VL|M=(IM,L−I0)/(IM,V−I0), where VL|M, IM,L and IM,V are the normalized viability, and fluorescence intensity from cells treated with […], respectively. The viability was typically measured in biological triplicate unless otherwise specified. A representative dose-response curve, the mean and standard error of normalized viability from one replicate were plotted. HT-1080 viability after modulator treatments corresponding to FIG. 3C and FIGS. 5E-5F is available in FIGS. 19A-19C.
# Their lethality was tested once in HT-1080 cells in technical triplicates.
# [2] = test system: HT-1080; assay: Modulatory profiling: Alamar Blue viability, lethal compound cotreated with death modulator (EC50, AUC); format: cell-based; parameters: AUC, modulator HT.3MA / AUC, modulator HT.ALLN / AUC HT.ATA / AUC HT.ActD / AUC HT.BHA / AUC HT.BHT / AUC HT.BocD / AUC HT.CHX / AUC HT.Co2+ / AUC HT.DPQ / AUC HT.EGTA / AUC HT.Lmim / AUC HT.NAD+ / AUC HT.Nec-1 / AUC HT.SP600125 / AUC HT.TLCK / AUC HT.U0126: unit not given beside the values; conditions: for AUC HT.ATA: HT-1080, modulator ATA; for AUC HT.ActD: HT-1080, modulator ActD; for AUC HT.BHA: HT-1080, modulator BHA; for AUC HT.BHT: HT-1080, modulator BHT; for AUC HT.BocD: HT-1080, modulator BocD; for AUC HT.CHX: HT-1080, modulator CHX; for AUC HT.Co2+: HT-1080, modulator Co2+; for AUC HT.CspA: HT-1080, modulator CspA; for AUC HT.DPQ: HT-1080, modulator DPQ; for AUC HT.EGTA: HT-1080, modulator EGTA; for AUC HT.Gd3+: HT-1080, modulator Gd3+; for AUC HT.LNAME: HT-1080, modulator LNAME; for AUC HT.Lmim: HT-1080, modulator Lmim; for AUC HT.NAD+: HT-1080, modulator NAD+; for AUC HT.NMMA: HT-1080, modulator NMMA; for HT.atoc (AUC) / HT.bCarotene (AUC) / HT.deferox (AUC) / HT.digoxin (AUC) / HT.trolox (AUC) / HT.zVAD (AUC): HT-1080; for HT.atoc (AUC): modulator atoc; for HT.bCarotene (AUC): modulator bCarotene; for HT.deferox (AUC): modulator deferox; for HT.digoxin (AUC): modulator digoxin; for HT.trolox (AUC): modulator trolox; for HT.zVAD (AUC): modulator zVAD
# [3] = test system: BJeLR; assay: as above; format: cell-based, human; parameters: AUC, modulator BJ.Gd3+ / AUC, modulator BJ.LNAME / AUC, modulator BJ.Lmin / AUC, modulator BJ.3MA / AUC, modulator BJ.ALLN / AUC, modulator BJ.Boc D / AUC, modulator BJ.CHX / AUC, modulator BJ.Co2+ / AUC, modulator BJ.Nec-1 / AUC, modulator BJ.Pepstatin / AUC, modulator BJ.TLCK / AUC, modulator BJ.atoc / AUC, modulator BJ.trolox / AUC, modulator BJ.zVAD: unit not given beside the values; conditions: BJeLR cells, modulatory profile value (AUC); for AUC, modulator BJ.3MA: lethal compound cotreated with modulator 3MA; for AUC, modulator BJ.ALLN: lethal compound cotreated with modulator ALLN; for AUC, modulator BJ.Boc D: lethal compound cotreated with modulator Boc D; for AUC, modulator BJ.CHX: lethal compound cotreated with modulator CHX; for AUC, modulator BJ.Co2+: lethal compound cotreated with modulator Co2+; for AUC, modulator BJ.DPQ: lethal compound cotreated with modulator DPQ; for AUC, modulator BJ.Gd3+: lethal compound cotreated with modulator Gd3+; for AUC, modulator BJ.LNAME: lethal compound cotreated with modulator LNAME; for AUC, modulator BJ.Lmin/NAD+: lethal compound cotreated with modulator Lmin/NAD+; for AUC, modulator BJ.Lmin: lethal compound cotreated with modulator Lmin; for AUC, modulator BJ.NAD+: lethal compound cotreated with modulator NAD+; for AUC, modulator BJ.NMMA: lethal compound cotreated with modulator NMMA; for AUC, modulator BJ.Nec-1: lethal compound cotreated with modulator Nec-1; for AUC, modulator BJ.Pepstatin: lethal compound cotreated with modulator Pepstatin; for AUC, modulator BJ.TLCK: lethal compound cotreated with modulator TLCK
structure (smiles),measurement,setting,value
N[C@H](Cc1ccc([N+](=O)[O-])cc1)NOC(=O)COc1ccc2ccccc2c1 [CB57],EC50,[1],> 20 µg/mL
N/C(Cc1cccs1)=N\OC(=O)COc1ccccc1 [CB24],EC50,[1],> 20 µg/mL
N/C(Cc1ccc(Cl)cc1Cl)=N\OC(=O)CSc1ccccc1 [CB133],EC50,[1],> 20 µg/mL
N/C(Cc1ccc(Cl)cc1Cl)=N\OC(=O)C1CCCCC1 [AS1],EC50,[1],> 20 µg/mL
CC(=O)O/N=C(\N)Cc1ccc(-c2csnn2)cc1 [MB8],EC50,[1],> 20 µg/mL
COc1ccc(C/C(N)=N/OC(=O)COc2ccc(Br)c(C)c2)cc1 [CB37],EC50,[1],> 20 µg/mL
Cc1ccccc1OCC(=O)O/N=C(\N)Cc1cccs1 [CB21],EC50,[1],> 20 µg/mL
CC(C)c1ccc(OCC(=O)O/N=C(\N)Cc2ccc([N+](=O)[O-])cc2)cc1 [CB93],EC50,[1],> 20 µg/mL
COc1ccc(CC(=O)O/N=C(\N)Cc2ccc(Cl)c(Cl)c2)cc1OC [CB143],EC50,[1],> 20 µg/mL
CC(=O)O/N=C(N)/C(N)=N/OC(C)=O [ZE17],EC50,[1],> 20 µg/mL
CC(C)(C)C(=O)O/N=C(\N)Cc1ccc(-c2csnn2)cc1 [MB6],EC50,[1],6.48 µg/mL
Cc1ccc(OC/C(N)=N/OC(=O)CCn2cc(C(F)(F)F)ccc2=O)cc1 [MB17],EC50,[1],> 20 µg/mL
CC(C)c1ccc(OCC(=O)O/N=C(\N)Cc2cccc3ccccc23)cc1 [CB90],EC50,[1],> 20 µg/mL
CC(C)(Oc1ccc(Cl)cc1)C(=O)O/N=C(\N)Cc1cccc2ccccc12 [CB113],EC50,[1],> 20 µg/mL
COc1ccc(CC(=O)O/N=C(\N)Cn2nc(C(F)(F)F)cc2C)cc1 [ZE3],EC50,[1],> 20 µg/mL
Cc1nn(C/C(N)=N\OC(=O)COc2cc(Cl)ccc2Cl)c(C)c1[N+](=O)[O-] [ZE14],EC50,[1],> 20 µg/mL
N/C(Cc1cccc2ccccc12)=N\OC(=O)Cc1ccccc1[N+](=O)[O-] [CB114],EC50,[1],> 20 µg/mL
Cc1ccc(Cl)cc1N1CCN(C/C(N)=N/OC(=O)CCC(=O)NC2CCCCC2)CC1 [CD1],EC50,[1],> 20 µg/mL
Cc1cc(Br)ccc1OCC(=O)O/N=C(\N)Cc1ccc(Cl)cc1Cl [CB110],EC50,[1],> 20 µg/mL
COc1ccc(C/C(N)=N/OC(=O)COc2ccc(C)cc2Br)cc1 [CB47],EC50,[1],> 20 µg/mL
CCC(=O)O/N=C(\N)COc1ccc(Cl)cc1Cl [MB12],EC50,[1],> 20 µg/mL
CC(C)(C)C(=O)O/N=C(\N)Cc1ccc([N+](=O)[O-])cc1 [CB14],EC50,[1],14 µg/mL
N/C(COc1ccccc1)=N\OC(=O)C1CCCN1C(=O)c1ccco1 (stereo not shown) [EN7],EC50,[1],> 20 µg/mL
Cc1cccc(OCC(=O)O/N=C(\N)Cc2ccc([N+](=O)[O-])cc2)c1 [CB39],EC50,[1],> 20 µg/mL
CC1(C)CC(=O)C2=C(C1)OC1=C(C(=O)CC(C)(C)C1)C2c1ccc(O)cc1O [CIL62],effect of necrostatin-1 on lethality,[2]; 19 μM Nec-1,suppressed by necrostatin-1
same,AUC HT.ATA,[2],0.02941
same,AUC HT.ActD,[2],−0.01143
same,AUC HT.BHA,[2],−0.007393
same,AUC HT.BHT,[2],−0.1437
same,AUC HT.BocD,[2],0.002455
same,AUC HT.CHX,[2],0.08707
same,AUC HT.Co2+,[2],0.03422
same,AUC HT.CspA,[2],−0.001347
same,AUC HT.DPQ,[2],0.01017
same,AUC HT.EGTA,[2],0.04611
same,AUC HT.Gd3+,[2],−0.02573
same,AUC HT.LNAME,[2],−0.003569
same,AUC HT.Lmim,[2],0.008056
same,AUC HT.NAD+,[2],−0.01689
same,AUC HT.NMMA,[2],−0.01754
same,HT.atoc (AUC),[2],0.08235
same,HT.bCarotene (AUC),[2],0.02726
same,HT.deferox (AUC),[2],0.1061
same,HT.digoxin (AUC),[2],−0.02448
same,HT.trolox (AUC),[2],−0.03123
same,HT.zVAD (AUC),[2],−0.01794
same,"AUC, modulator BJ.3MA",[3],0.009762
same,"AUC, modulator BJ.ALLN",[3],−0.06265
same,"AUC, modulator BJ.Boc D",[3],−0.008658
same,"AUC, modulator BJ.CHX",[3],0.5162
same,"AUC, modulator BJ.Co2+",[3],0.01574
same,"AUC, modulator BJ.DPQ",[3],−0.005752
same,"AUC, modulator BJ.Gd3+",[3],0.002946
same,"AUC, modulator BJ.LNAME",[3],−0.02055
same,"AUC, modulator BJ.Lmin/NAD+",[3],0.08736
same,"AUC, modulator BJ.Lmin",[3],0.01862
same,"AUC, modulator BJ.NAD+",[3],0.04149
same,"AUC, modulator BJ.NMMA",[3],−0.05556
same,"AUC, modulator BJ.Nec-1",[3],0.1929
same,"AUC, modulator BJ.Pepstatin",[3],0.06831
same,"AUC, modulator BJ.TLCK",[3],−0.03175
[O-][N+]1=c2ccc(Nc3ccccc3)cc2=NC12CCCCC2 [CIL66],AUC HT.ATA,[2],0.02652
same,AUC HT.ActD,[2],−0.03277
same,AUC HT.BHA,[2],−0.02085
same,AUC HT.BHT,[2],−0.1542
same,AUC HT.BocD,[2],−0.05788
same,AUC HT.CHX,[2],0.08144
same,AUC HT.Co2+,[2],−0.06034
same,AUC HT.CspA,[2],−0.05469
same,AUC HT.DPQ,[2],−0.01105
same,AUC HT.EGTA,[2],0.03093
same,AUC HT.Gd3+,[2],−0.01757
same,AUC HT.LNAME,[2],0.004035
same,AUC HT.Lmim,[2],0.01652
same,AUC HT.NAD+,[2],−0.01106
same,AUC HT.NMMA,[2],−0.01421
same,HT.atoc (AUC),[2],0.05045
same,HT.bCarotene (AUC),[2],0.03186
same,HT.deferox (AUC),[2],0.1299
same,HT.digoxin (AUC),[2],−0.05456
same,HT.trolox (AUC),[2],−0.03334
same,HT.zVAD (AUC),[2],0.01629
same,"AUC, modulator BJ.3MA",[3],0.04168
same,"AUC, modulator BJ.ALLN",[3],0.08747
same,"AUC, modulator BJ.Boc D",[3],−0.03146
same,"AUC, modulator BJ.CHX",[3],0.08369
same,"AUC, modulator BJ.Co2+",[3],−0.03141
same,"AUC, modulator BJ.DPQ",[3],−0.007284
same,"AUC, modulator BJ.Gd3+",[3],−0.003838
same,"AUC, modulator BJ.LNAME",[3],0.02705
same,"AUC, modulator BJ.Lmin/NAD+",[3],0.06444
same,"AUC, modulator BJ.Lmin",[3],−0.05195
same,"AUC, modulator BJ.NAD+",[3],−0.0264
same,"AUC, modulator BJ.NMMA",[3],−0.02558
same,"AUC, modulator BJ.Nec-1",[3],0.03694
same,"AUC, modulator BJ.Pepstatin",[3],0.04469
same,"AUC, modulator BJ.TLCK",[3],−0.07935
